Values belong to the molecule of their own block, whether it stands above or below them.
How the values were obtained:
MAP3K5 = molecular target: T1, MAP3K5 (Homo sapiens, UniProt Q99683); assay: Kinobeads two-dose competition binding: MAP3K5; conditions: Drugmatrix - all 2, read-out: apparent Kd MAP3K5
T1 construct: endogenous in cells

FLT4 = molecular target: T2, FLT4 (Homo sapiens, UniProt P35916); assay: Kinobeads two-dose competition binding: FLT4; conditions: read-out: Lestaurtinib Drugmatrix value, Gene Name FLT4
T2 construct: endogenous in cells

PRKAR2A = molecular target: T3, PRKAR2A (Homo sapiens, UniProt P13861); assay: Kinobeads competition binding, Lestaurtinib control replicates: PRKAR2A; conditions: read-out: Lestaurtinib Drugmatrix value; Gene Name PRKAR2A; one column per experiment number and replicate (R1-R3)
T3 construct: to maximize the representation of endogenous proteins; endogenous in cells

CSNK1D = molecular target: T4, CSNK1D (Homo sapiens, UniProt P48730); assay: Kinobeads full dose-response competition binding: CSNK1D; conditions: Gene Name CSNK1D
T4 construct: endogenous in cells

SPR = molecular target: T5, SPR (Homo sapiens, UniProt P35270); assay: Kinobeads full dose-response competition binding: SPR; conditions: Gene Name SPR
T5 construct: endogenous in cells

[1] = EC50 with Correction, doses in nM, read-out: apparent Kd
[2] = eight-dose curve fit, doses in nM

T5 sequence (P35270 whole entry): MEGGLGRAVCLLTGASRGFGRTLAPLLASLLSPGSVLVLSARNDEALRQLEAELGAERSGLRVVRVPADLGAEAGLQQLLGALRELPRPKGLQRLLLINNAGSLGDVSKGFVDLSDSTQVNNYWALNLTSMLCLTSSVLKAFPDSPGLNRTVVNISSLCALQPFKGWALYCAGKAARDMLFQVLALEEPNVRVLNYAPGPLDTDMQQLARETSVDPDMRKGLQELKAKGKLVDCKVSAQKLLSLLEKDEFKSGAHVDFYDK
T4 sequence (P48730 whole entry): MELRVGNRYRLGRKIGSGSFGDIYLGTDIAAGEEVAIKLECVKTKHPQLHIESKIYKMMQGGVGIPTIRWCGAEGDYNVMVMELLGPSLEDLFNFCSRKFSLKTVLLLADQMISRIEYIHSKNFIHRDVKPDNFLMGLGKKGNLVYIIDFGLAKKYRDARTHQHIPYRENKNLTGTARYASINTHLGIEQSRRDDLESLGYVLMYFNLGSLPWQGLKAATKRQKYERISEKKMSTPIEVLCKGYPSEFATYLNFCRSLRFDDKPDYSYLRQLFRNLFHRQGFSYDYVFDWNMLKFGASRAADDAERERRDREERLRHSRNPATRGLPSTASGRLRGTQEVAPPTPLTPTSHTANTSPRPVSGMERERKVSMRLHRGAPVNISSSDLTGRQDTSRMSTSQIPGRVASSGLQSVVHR
T1 sequence (Q99683 whole entry): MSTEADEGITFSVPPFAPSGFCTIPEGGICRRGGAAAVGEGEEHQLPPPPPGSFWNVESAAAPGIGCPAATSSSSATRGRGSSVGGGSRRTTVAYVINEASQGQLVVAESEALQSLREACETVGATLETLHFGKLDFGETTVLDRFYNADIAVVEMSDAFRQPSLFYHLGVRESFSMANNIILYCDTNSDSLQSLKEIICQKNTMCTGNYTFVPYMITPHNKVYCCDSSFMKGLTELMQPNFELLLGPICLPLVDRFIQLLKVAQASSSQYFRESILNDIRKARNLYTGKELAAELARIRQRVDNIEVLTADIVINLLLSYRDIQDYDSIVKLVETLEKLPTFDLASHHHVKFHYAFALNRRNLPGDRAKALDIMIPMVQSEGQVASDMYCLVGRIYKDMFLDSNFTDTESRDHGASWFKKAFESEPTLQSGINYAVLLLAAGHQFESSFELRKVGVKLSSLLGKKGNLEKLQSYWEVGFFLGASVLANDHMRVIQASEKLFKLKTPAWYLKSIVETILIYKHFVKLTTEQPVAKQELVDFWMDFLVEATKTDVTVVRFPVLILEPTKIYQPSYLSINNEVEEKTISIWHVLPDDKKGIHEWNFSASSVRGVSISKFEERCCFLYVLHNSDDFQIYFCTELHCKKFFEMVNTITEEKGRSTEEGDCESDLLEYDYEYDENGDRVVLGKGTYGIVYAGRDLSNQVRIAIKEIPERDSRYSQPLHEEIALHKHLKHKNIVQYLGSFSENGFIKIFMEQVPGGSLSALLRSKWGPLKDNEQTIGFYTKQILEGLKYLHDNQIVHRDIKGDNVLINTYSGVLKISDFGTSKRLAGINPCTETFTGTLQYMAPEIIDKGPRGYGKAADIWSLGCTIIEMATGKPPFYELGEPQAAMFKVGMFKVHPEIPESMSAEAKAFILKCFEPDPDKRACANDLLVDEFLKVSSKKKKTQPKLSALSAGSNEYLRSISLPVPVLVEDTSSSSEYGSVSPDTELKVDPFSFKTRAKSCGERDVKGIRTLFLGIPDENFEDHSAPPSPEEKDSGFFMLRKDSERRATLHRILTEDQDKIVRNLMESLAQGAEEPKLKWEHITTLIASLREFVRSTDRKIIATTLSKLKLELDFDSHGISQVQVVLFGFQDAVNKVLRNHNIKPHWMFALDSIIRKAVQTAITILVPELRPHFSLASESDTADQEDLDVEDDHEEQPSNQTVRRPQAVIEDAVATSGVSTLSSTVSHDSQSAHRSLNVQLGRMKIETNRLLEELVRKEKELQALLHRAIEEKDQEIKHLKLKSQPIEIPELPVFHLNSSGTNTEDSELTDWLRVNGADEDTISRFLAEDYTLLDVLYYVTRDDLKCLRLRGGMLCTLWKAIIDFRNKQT
T2 sequence (P35916 25-1363): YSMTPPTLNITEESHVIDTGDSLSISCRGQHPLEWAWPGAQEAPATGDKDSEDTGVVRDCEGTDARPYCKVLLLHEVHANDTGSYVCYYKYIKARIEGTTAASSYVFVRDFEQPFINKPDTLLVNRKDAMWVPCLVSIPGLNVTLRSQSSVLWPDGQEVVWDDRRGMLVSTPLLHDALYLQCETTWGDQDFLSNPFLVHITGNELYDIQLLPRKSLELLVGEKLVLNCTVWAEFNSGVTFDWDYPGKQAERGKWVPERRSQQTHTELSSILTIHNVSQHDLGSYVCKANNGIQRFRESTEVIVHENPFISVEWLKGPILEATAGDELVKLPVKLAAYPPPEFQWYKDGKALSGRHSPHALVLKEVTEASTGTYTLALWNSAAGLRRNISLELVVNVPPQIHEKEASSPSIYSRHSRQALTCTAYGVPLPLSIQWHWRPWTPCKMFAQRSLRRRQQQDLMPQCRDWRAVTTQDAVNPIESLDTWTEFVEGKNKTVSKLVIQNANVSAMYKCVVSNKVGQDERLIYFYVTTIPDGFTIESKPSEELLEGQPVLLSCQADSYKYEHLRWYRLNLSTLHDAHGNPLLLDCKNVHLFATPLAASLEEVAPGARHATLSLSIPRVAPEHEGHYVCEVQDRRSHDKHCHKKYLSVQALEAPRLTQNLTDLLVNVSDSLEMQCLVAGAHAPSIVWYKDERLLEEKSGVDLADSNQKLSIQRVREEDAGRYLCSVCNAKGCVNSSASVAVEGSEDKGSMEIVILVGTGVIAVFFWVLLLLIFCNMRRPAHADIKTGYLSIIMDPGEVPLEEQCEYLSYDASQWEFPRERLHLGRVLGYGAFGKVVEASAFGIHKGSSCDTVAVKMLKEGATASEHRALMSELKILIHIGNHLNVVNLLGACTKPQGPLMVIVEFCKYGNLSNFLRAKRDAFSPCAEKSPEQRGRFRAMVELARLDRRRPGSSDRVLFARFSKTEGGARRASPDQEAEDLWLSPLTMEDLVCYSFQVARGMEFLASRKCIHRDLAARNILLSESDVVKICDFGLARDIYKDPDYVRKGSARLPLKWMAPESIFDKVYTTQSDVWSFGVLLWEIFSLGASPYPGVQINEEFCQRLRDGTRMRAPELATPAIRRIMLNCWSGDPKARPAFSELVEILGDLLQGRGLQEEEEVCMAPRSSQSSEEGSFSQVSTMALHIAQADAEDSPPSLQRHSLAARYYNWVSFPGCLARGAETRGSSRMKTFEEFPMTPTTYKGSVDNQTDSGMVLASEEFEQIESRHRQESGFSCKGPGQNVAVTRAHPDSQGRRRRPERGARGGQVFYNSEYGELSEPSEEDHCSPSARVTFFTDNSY

- potency estimated from few doses (MAP3K5): > 1000 nM
Compound: CC(C)N1CC(=O)N(C)c2cnc(Nc3cccc(S(=O)(=O)CCN4CCOCC4)c3)nc21 [BI00009348]

Compound: C[C@]12O[C@H](C[C@]1(O)CO)n1c3ccccc3c3c4c(c5c6ccccc6n2c5c31)CNC4=O [Lestaurtinib]
- potency estimated from few doses (FLT4): 396 nM
- potency estimated from few doses (PRKAR2A): 979 nM

Compound: NCc1ccc(-c2nc(-c3ccncc3)c(-c3ccc(Cl)c(O)c3)[nH]2)cc1 [SB-476429-A]
- Relative Intensity 0.3nM (CSNK1D; 0.3nM compound, DMSO = 1): 0.9053
- Relative Intensity 1nM (CSNK1D; 1nM compound, DMSO = 1): 1.1
- Relative Intensity 3nM (CSNK1D; 3nM compound, DMSO = 1): 1.076
- Relative Intensity 10nM (CSNK1D; 10nM compound, DMSO = 1): 1.106
- Relative Intensity 30nM (CSNK1D; 30nM compound, DMSO = 1): 0.9763
- Relative Intensity 100nM (CSNK1D; 100nM compound, DMSO = 1): 0.9322
- Relative Intensity 300nM (CSNK1D; 300nM compound, DMSO = 1): 0.7176
- Relative Intensity 1000nM (CSNK1D; 1000nM compound, DMSO = 1): 0.4933
- Kd (CSNK1D; [1]): 300 nM
- EC50 (CSNK1D; [2]): 300 nM
- Relative Intensity 0.3nM (SPR; 0.3nM compound, DMSO = 1): 0.9627
- Relative Intensity 1nM (SPR; 1nM compound, DMSO = 1): 0.9101
- Relative Intensity 3nM (SPR; 3nM compound, DMSO = 1): 0.8696
- Relative Intensity 10nM (SPR; 10nM compound, DMSO = 1): 0.7693
- Relative Intensity 30nM (SPR; 30nM compound, DMSO = 1): 0.5216
- Relative Intensity 100nM (SPR; 100nM compound, DMSO = 1): 0.1442
- Relative Intensity 300nM (SPR; 300nM compound, DMSO = 1): 0.02935
- Relative Intensity 1000nM (SPR; 1000nM compound, DMSO = 1): 0.01082
- Kd (SPR; [1]): 32.8 nM
- EC50 (SPR; [2]): 32.8 nM

Source: article PMC11062922 (Nature Chemical Biology, 2023)
